Source: article PMC9863004, “Development of [^124/125I]IAZA as a New Proteinopathy Imaging Agent for Alzheimer’s Disease” (Molecules, 2023)

What was measured:
[1] = biological target: T1, Aβ amyloid plaques (amyloid β) (Homo sapiens, UniProt P05067); test: displacement of […]IAZA at […], autoradiography in human AD brain slices
T1 construct: gene APP; aggregated Aβ plaques in postmortem human AD brain slices

[2] = biological target: T1, Aβ amyloid plaques (amyloid β); test: autoradiographic radioligand competition with […]IBETA in human AD brain slices; direct [[…]I]IAZA binding

T1 sequence (P05067 18-770): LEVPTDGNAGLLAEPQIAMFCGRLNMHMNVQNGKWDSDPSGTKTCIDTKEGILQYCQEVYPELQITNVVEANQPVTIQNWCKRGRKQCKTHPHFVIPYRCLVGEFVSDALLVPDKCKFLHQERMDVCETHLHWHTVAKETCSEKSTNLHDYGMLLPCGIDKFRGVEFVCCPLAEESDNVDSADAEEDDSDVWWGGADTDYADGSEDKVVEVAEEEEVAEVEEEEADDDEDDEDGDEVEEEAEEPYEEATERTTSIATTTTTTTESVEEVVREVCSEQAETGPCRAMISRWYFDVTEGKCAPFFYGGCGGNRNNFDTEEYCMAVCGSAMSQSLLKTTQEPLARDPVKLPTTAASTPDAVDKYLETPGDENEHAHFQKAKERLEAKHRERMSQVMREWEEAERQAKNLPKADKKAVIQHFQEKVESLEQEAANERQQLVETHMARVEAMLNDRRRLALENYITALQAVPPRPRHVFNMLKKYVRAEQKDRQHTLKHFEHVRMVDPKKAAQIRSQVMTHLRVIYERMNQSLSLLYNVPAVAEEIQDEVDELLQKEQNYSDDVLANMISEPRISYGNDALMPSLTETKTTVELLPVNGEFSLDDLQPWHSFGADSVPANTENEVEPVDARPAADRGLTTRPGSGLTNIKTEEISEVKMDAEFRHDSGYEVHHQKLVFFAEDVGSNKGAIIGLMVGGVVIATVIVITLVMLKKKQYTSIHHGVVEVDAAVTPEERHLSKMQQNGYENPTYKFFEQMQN

inhibition at 10 µM [1]	Ki [2]	Compound
> 95%	–	CN(C)c1ccc(-c2cc3cc(Br)ccc3o2)cn1 [BrBETA]
–	0.0109 µM	CN(C)c1ccc(N=Nc2ccc(I)cc2)cc1 [compound 5, 4′-iodo-4-dimethylaminoazobenzene]
